Experimental data from US8987267B2, “2-substituted-8-alkyl-7-OXO-7,8-dihydropyrido[2,3-D]pyrimidine-6-carbonitriles and uses thereof in treating proliferative disorders” (Temple University—of the Commonwealth System of Higher …, priority 2010, dated 2015).

Assays:
[1] = tested on: BT20; assay: Cytotoxicity assay, viable cell count; type: cell-based; details: Homo sapiens, BT-20; BT20, Breast; 96 h continuous treatment, trypan blue
Protocol: (§1) Cells (1×10^5) were plated into 6-well dishes and 24 h later 8-cyclopentyl-2-((4-(4-methylpiperazin-1-yl)phenyl)amino)-7-oxo-7,8-dihydropyrido[2,3-d]pyrimidine-6-carbonitrile (12) was added at five different concentrations over a 2 log dilution (1-100 μM). The total number of viable cells was determined after 96 h of continuous treatment by staining with trypan blue and counting the number of non-staining cells (viable) remaining in each well using a hemacytometer. The percentage of viable cells remaining was calculated as follows: # viable cells (compound treated)/# viable cells (DMSO treated)*100.

[2] = tested on: HCT-15; assay: Cytotoxicity assay, viable cell count; type: cell-based; details: Homo sapiens; HCT-15, Colon (MDR elevated); 96 h continuous treatment, trypan blue
Protocol: as §1

[3] = tested on: MCF-7; assay: Cytotoxicity assay, viable cell count; type: cell-based; details: Homo sapiens, MCF7; MCF-7, ER + Breast; 96 h continuous treatment, trypan blue
Protocol: as §1

[4] = tested on: MDA-MB-468; assay: Cytotoxicity assay, viable cell count; type: cell-based; details: Homo sapiens, MDA-MB-468, 96 h
Protocol: as §1

[5] = tested on: SK-BR-3; assay: Cytotoxicity assay, viable cell count; type: cell-based; details: Homo sapiens; SK-BR-3, ErbB2 + Breast; 96 h continuous treatment, trypan blue
Protocol: as §1

[6] = tested on: Z138C; assay: Cytotoxicity assay, viable cell count; type: cell-based; details: MCL, 96 h continuous treatment, trypan blue
Protocol: as §1

[7] = molecular target: ABL1 (Homo sapiens, UniProt P00519); assay: Kinase inhibition panel; type: biochemical; details: 10 μM ATP
Protocol: (§2) The compounds in Table 4 were tested for the ability to inhibit the kinase activity of the listed protein kinases.

[8] = molecular target: ABL2/ARG (Homo sapiens, UniProt P42684); assay: Kinase inhibition panel; type: biochemical; details: 10 μM ATP
Protocol: as §2

[9] = molecular target: CDK2/cyclinA (Homo sapiens, UniProt P24941); assay: Kinase inhibition panel; type: biochemical; details: 10 μM ATP
Protocol: as §2

[10] = molecular target: CDK2/cyclinE (Homo sapiens, UniProt P24941); assay: Kinase inhibition panel; type: biochemical; details: 10 μM ATP
Protocol: as §2

[11] = molecular target: CDK3/cyclinE (Homo sapiens, UniProt Q00526); assay: Kinase inhibition panel; type: biochemical; details: 10 μM ATP
Protocol: as §2

[12] = molecular target: CDK4/Cyclin D1 (Homo sapiens, UniProt P11802); assay: Kinase inhibition panel; type: biochemical; details: 10 μM ATP
Protocol: as §2

[13] = molecular target: CDK5/p25 (Homo sapiens, UniProt Q00535); assay: Kinase inhibition panel; type: biochemical; details: 10 μM ATP
Protocol: as §2

[14] = molecular target: CDK5/p35 (Homo sapiens, UniProt Q00535); assay: Kinase inhibition panel; type: biochemical; details: 10 μM ATP
Protocol: as §2

[15] = molecular target: CDK6/cyclinD1 (Homo sapiens, UniProt Q00534); assay: Kinase inhibition panel; type: biochemical; details: 10 μM ATP
Protocol: as §2

[16] = molecular target: CDK9/cyclin K (Homo sapiens, UniProt P50750); assay: Kinase inhibition panel; type: biochemical; details: 10 μM ATP
Protocol: as §2

[17] = molecular target: EPHA1 (Homo sapiens, UniProt P21709); assay: Kinase inhibition panel; type: biochemical; details: 10 μM ATP
Protocol: as §2

[18] = molecular target: EphB1 (Homo sapiens, UniProt P54762); assay: Kinase inhibition panel; type: biochemical; details: 10 μM ATP
Protocol: as §2

[19] = molecular target: EphB4 (Homo sapiens, UniProt P54760); assay: Kinase inhibition panel; type: biochemical; details: 10 μM ATP
Protocol: as §2

[20] = molecular target: FGFR1 (Homo sapiens, UniProt P11362); assay: Kinase inhibition panel; type: biochemical; details: 10 μM ATP
Protocol: as §2

[21] = molecular target: FGFR3 (Homo sapiens, UniProt P22607); assay: Kinase inhibition panel; type: biochemical; details: 10 μM ATP
Protocol: as §2

[22] = molecular target: FLTINEGFRI (Homo sapiens, UniProt P17948); assay: Kinase inhibition panel; type: biochemical; details: 10 μM ATP
Protocol: as §2

[23] = molecular target: FMS (Homo sapiens, UniProt P07333); assay: Kinase inhibition panel; type: biochemical; details: 10 μM ATP
Protocol: as §2

[24] = molecular target: LCK (Homo sapiens, UniProt P06239); assay: Kinase inhibition panel; type: biochemical; details: 10 μM ATP
Protocol: as §2

[25] = molecular target: LIMK1 (Homo sapiens, UniProt P53667); assay: Kinase inhibition panel; type: biochemical; details: 10 μM ATP
Protocol: as §2

[26] = molecular target: LOK/STK10 (Homo sapiens, UniProt O94804); assay: Kinase inhibition panel; type: biochemical; details: 10 μM ATP
Protocol: as §2

[27] = molecular target: LYNB (Homo sapiens, UniProt P07948); assay: Kinase inhibition panel; type: biochemical; details: 10 μM ATP
Protocol: as §2

[28] = molecular target: PAK3 (Homo sapiens, UniProt O75914); assay: Kinase inhibition panel; type: biochemical; details: 10 μM ATP
Protocol: as §2

[29] = molecular target: RIPK2 (Homo sapiens, UniProt O43353); assay: Kinase inhibition panel; type: biochemical; details: 10 μM ATP
Protocol: as §2

[30] = molecular target: SIK2/SNF1LK2 (Homo sapiens, UniProt Q9H0K1); assay: Kinase inhibition panel; type: biochemical; details: 10 μM ATP
Protocol: as §2

[31] = molecular target: SNARK/NUAK2 (Homo sapiens, UniProt Q9H093); assay: Kinase inhibition panel; type: biochemical; details: 10 μM ATP
Protocol: as §2

[32] = molecular target: TAOK2ITA01 (Homo sapiens, UniProt Q9UL54); assay: Kinase inhibition panel; type: biochemical; details: 10 μM ATP
Protocol: as §2

[33] = molecular target: TGFbR2 (Homo sapiens, UniProt P37173); assay: Kinase inhibition panel; type: biochemical; details: 10 μM ATP
Protocol: as §2

[34] = molecular target: c-Src (Homo sapiens, UniProt P12931); assay: Kinase inhibition panel; type: biochemical; details: 10 μM ATP
Protocol: as §2

[35] = molecular target: c-Kit (Homo sapiens, UniProt P10721); assay: Kinase inhibition panel; type: biochemical; details: 10 μM ATP
[36] = molecular target: CDK9/cyclinT1 (Homo sapiens, UniProt P50750); assay: Kinase inhibition panel; type: biochemical; details: 10 μM ATP
[37] = molecular target: EphB2/HEK5 (Homo sapiens, UniProt P29323); assay: Kinase inhibition panel; type: biochemical; details: 10 μM ATP
[38] = molecular target: LYN (Homo sapiens, UniProt P07948); assay: Kinase inhibition panel; type: biochemical; details: 10 μM ATP

CDK5/p35, sequence (Q00535 whole entry, species assumed): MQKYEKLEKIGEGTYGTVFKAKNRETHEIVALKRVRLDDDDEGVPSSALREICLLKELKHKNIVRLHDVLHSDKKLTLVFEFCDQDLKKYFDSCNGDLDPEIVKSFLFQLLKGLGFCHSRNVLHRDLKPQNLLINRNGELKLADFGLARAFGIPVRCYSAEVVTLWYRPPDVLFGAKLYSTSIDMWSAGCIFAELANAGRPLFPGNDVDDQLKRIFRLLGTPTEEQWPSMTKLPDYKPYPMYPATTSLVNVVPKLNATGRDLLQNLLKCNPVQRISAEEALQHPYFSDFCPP
CDK5/p35, sequence (Q15078 whole entry partner, species assumed): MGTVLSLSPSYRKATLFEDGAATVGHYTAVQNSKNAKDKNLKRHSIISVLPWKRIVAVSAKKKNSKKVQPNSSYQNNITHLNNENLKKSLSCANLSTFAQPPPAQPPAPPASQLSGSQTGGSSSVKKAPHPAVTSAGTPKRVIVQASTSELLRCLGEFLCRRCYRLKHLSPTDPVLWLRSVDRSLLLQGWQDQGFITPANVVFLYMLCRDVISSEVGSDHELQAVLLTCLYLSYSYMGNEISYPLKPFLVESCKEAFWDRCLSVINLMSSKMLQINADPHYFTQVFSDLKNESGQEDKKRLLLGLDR
CDK5/p25, sequence (Q00535 whole entry, species assumed): as the sequence (Q00535 whole entry, species assumed) above
CDK5/p25, sequence (Q15078 99-307 partner limits assumed, species assumed): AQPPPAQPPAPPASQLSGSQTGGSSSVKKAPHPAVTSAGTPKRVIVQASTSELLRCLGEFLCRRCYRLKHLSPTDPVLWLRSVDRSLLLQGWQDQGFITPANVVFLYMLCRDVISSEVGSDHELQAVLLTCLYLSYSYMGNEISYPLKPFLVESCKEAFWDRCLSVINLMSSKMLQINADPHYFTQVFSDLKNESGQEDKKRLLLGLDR
EPHA1, sequence (P21709 26-976, species assumed): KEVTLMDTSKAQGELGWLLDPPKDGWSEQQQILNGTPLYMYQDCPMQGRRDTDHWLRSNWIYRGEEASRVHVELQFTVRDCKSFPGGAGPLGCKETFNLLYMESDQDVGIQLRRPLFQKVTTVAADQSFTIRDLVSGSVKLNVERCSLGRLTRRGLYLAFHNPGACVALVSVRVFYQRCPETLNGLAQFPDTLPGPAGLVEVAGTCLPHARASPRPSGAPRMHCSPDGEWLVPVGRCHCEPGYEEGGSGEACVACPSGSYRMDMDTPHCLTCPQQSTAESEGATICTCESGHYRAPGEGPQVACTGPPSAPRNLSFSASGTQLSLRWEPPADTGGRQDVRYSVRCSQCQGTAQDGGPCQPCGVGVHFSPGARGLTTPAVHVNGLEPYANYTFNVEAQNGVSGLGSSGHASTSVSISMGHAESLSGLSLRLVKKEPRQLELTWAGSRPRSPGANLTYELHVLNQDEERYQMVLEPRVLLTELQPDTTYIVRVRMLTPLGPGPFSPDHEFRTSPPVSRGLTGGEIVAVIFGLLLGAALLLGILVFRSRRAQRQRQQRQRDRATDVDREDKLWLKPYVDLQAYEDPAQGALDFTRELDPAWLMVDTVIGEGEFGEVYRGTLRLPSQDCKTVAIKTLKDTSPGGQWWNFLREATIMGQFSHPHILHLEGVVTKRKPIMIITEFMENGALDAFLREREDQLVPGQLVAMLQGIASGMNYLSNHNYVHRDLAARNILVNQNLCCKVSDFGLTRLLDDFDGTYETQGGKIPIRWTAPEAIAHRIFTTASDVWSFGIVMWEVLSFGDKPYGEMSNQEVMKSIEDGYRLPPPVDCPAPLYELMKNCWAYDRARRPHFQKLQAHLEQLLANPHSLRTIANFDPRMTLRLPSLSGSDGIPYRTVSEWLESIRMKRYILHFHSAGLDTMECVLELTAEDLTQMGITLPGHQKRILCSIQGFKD
EphB2/HEK5, sequence (P29323 19-1055): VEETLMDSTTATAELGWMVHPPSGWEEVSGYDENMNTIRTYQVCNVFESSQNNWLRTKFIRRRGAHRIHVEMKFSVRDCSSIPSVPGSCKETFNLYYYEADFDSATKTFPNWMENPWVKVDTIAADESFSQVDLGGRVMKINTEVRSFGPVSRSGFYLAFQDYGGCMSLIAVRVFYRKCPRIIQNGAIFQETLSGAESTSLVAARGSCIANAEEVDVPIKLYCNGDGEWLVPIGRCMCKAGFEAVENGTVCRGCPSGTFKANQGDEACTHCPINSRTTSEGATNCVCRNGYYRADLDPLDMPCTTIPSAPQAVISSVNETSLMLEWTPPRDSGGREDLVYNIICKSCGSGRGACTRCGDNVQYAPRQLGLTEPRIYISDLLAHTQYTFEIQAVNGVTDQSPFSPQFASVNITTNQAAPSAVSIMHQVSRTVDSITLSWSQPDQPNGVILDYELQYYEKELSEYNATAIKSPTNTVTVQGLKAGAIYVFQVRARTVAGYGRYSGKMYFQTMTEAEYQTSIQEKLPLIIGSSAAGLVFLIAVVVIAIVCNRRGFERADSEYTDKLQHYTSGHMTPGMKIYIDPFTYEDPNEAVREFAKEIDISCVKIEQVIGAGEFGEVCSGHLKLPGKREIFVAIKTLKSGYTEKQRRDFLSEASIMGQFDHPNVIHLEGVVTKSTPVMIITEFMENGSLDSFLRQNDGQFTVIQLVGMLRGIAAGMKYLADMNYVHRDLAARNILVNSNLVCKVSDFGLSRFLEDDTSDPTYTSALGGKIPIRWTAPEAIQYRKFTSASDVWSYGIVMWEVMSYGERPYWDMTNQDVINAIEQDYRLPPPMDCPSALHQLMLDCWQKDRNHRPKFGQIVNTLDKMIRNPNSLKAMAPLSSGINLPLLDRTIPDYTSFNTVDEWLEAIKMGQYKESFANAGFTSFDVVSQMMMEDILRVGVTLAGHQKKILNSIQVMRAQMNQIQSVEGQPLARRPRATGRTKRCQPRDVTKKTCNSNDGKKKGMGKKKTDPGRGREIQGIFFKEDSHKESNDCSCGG
FMS, sequence (P07333 20-972, species assumed): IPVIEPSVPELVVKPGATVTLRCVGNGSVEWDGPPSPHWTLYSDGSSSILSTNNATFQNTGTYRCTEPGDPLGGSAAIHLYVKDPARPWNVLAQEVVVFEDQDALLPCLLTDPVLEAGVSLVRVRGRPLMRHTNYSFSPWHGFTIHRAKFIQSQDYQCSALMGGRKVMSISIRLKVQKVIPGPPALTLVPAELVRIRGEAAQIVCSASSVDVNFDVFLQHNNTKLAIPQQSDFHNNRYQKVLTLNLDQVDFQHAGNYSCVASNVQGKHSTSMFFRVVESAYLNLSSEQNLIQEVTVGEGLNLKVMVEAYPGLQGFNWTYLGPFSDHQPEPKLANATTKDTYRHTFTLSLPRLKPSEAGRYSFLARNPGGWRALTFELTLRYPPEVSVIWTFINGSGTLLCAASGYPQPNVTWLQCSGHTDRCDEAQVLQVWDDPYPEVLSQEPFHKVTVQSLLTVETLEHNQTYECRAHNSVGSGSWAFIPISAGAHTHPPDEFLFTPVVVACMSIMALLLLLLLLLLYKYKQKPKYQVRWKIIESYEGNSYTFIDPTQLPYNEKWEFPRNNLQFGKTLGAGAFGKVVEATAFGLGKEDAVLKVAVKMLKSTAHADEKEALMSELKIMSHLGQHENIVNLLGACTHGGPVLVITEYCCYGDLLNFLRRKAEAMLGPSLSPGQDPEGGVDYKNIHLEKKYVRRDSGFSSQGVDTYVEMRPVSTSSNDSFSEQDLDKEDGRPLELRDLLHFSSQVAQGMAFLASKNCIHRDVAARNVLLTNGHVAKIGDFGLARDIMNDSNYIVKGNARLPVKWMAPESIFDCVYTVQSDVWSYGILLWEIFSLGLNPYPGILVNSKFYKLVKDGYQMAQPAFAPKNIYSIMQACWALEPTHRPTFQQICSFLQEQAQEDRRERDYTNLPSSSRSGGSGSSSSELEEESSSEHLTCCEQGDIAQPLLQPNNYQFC
EphB4, sequence (P54760 16-987, species assumed): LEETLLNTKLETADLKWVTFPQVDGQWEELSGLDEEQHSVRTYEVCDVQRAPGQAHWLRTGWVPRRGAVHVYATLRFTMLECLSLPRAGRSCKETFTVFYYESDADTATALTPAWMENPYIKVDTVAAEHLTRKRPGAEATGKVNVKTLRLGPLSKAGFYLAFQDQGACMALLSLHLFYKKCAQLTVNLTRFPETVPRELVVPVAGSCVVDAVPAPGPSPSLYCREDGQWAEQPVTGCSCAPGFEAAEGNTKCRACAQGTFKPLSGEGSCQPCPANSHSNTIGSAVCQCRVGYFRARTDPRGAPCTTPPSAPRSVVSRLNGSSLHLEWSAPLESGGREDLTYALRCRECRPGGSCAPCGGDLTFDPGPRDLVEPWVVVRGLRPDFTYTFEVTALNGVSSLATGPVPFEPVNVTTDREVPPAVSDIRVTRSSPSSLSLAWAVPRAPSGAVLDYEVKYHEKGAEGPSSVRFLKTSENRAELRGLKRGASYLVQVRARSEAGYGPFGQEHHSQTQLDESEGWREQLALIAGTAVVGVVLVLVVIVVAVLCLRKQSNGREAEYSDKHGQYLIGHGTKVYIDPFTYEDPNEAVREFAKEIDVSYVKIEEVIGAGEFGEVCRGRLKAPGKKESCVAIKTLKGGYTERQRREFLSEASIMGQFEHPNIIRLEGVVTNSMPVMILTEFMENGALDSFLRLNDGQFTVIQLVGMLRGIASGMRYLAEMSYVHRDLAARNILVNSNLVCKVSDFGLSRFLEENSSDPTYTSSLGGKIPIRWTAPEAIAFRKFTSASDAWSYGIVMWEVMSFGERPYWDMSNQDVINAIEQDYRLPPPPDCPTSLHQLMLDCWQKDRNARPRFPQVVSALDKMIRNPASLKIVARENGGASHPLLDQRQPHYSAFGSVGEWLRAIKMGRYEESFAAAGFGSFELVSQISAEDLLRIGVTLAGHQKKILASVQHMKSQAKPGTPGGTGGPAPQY

With `CN1CCN(c2ccc(Nc3ncc4cc(C#N)c(=O)n(C5CCCC5)c4n3)cc2)CC1` [Compound 12, 8-cyclopentyl-2-((4-(4-methylpiperazin-1-yl)phenyl)amino)-7-oxo-7,8-dihydropyrido[2,3-d]pyrimidine-6-carbonitrile] the GI50 [1] was 100 nM, the GI50 [2] was 400 nM and the GI50 [3] was 150 nM. It also gave a GI50 [4] of 1500 nM, a GI50 [5] of 600 nM and a GI50 [6] of 25 nM. It also gave an IC50 [7] of 75.6 nM, an IC50 [8] of 91.6 nM and an IC50 [9] of 97.3 nM. For the same compound, the IC50 [10] was 770 nM, the IC50 [11] was 3220 nM and the IC50 [12] was 4 nM. For the same compound, the IC50 [13] was 264 nM, the IC50 [14] was 181 nM and the IC50 [15] was 18.4 nM. The IC50 [16] was 27.1 nM, the IC50 [17] was 37.1 nM and the IC50 [18] was 26.7 nM. The IC50 [19] was 120 nM, the IC50 [20] was 68.2 nM and the IC50 [21] was 124 nM. The IC50 [22] was 94.1 nM, the IC50 [23] was 1.46 nM and the IC50 [24] was 50.4 nM. For the same compound, the IC50 [25] was 70.8 nM, the IC50 [26] was 181 nM and the IC50 [27] was 6650 nM. It also gave an IC50 [28] of 1930 nM, an IC50 [29] of 40.8 nM and an IC50 [30] of 96.8 nM. The IC50 [31] was 20.7 nM, the IC50 [32] was 69.6 nM and the IC50 [33] was 62.3 nM. For the same compound, the IC50 [34] was 93 nM, the IC50 [35] was 408 nM and the IC50 [36] was 85.4 nM. The IC50 [37] was 130 nM and the IC50 [38] was 68.5 nM.
